# Reference: article PMC12142043, “Cell-based high-content approach for SARS-CoV-2 neutralization identifies unique monoclonal antibodies and PI3K pathway inhibitors” (Frontiers in Cell and Developmental Biology, 2025)
# Structures can show the parent of a compound that is named as a salt. Where two headings read alike, the source gives them in different places.
# Tested on: SARS-CoV-2 (USA-WA1/2020) in Calu-3 cells
# Format: cell-based
# [1] = high dose (10 µM), Calu-3, 48 h
# [2] = low dose (100 nM), Calu-3, 48 h
Structure (SMILES),"dsRNA signal, AU High [1]","dsRNA signal, AU Low [2]","dsRNA signal, AU High","dsRNA signal, AU Low"
CCn1c2ccccc2c2cc(Nc3ccnc(NCCCN4CCOCC4)n3)ccc21 [EHop-016],0.0 AU,44568.8 AU,–,–
CCc1c(C(=O)NNC(=O)C(O)c2cc(F)cc(F)c2)ccc(O)c1C (centres unmarked) [EMD638683],288.1 AU,20264.2 AU,–,–
CN1CCC(COc2cnc(-c3cccc(Cn4nc(-c5cccc(C#N)c5)ccc4=O)c3)nc2)CC1 [EMD-1214063],14120.6 AU,47689.1 AU,–,–
Cc1cccc(-c2[nH]c(CNc3ccccc3F)nc2-c2ccc3ncnn3c2)n1 [EW-7197],168.7 AU,7205.0 AU,–,–
O=c1oc2c(O)c(O)cc3c(=O)oc4c(O)c(O)cc1c4c23 [Ellagic acid],14274.7 AU,14007.9 AU,–,–
Cc1cc(O)c2c(c1)C(=O)c1cc(O)cc(O)c1C2=O [Emodin],20341.5 AU,11688.8 AU,–,–
C#Cc1cccc(Nc2ncnc3cc(OCCOC)c(OCCOC)cc23)c1 [Erlotinib Hydrochloride],3624.7 AU,52457.7 AU,–,–
C#Cc1cccc(Nc2ncnc3cc(OCCOC)c(OCCOC)cc23)c1 [Erlotinib],7272.0 AU,15317.7 AU,–,–
CCOC(=O)c1cc(O)c(O)c(O)c1 [Ethyl gallate],180.5 AU,60976.1 AU,–,–
Cc1ccc(-c2c(C(=O)CF)n(CCCO)c3ncnc(N)c23)cc1 [FMK],36246.0 AU,14082.6 AU,–,–
Nc1[nH]nc2nnc(-c3c(-c4ccccc4)nn4ccccc34)cc12 [FR 180204],10806.0 AU,12597.7 AU,–,–
CCn1c(=O)c(-c2ccc(-c3cncs3)cc2Cl)cc2cnc(Nc3ccc(N4CCN(C)CC4)cc3)nc21 [FRAX597],1538.8 AU,50796.9 AU,–,–
CCCCCCCCc1ccc(CCC(N)(CO)CO)cc1 [Fingolimod (FTY720)],0.0 AU,13731.4 AU,–,–
CN1CC[C@H](c2c(O)cc(O)c3c(=O)cc(-c4ccccc4Cl)oc23)[C@H](O)C1 [Flavopiridol],411.3 AU,2633.8 AU,–,–
O=C(O)c1ccccc1Nc1cccc(C(F)(F)F)c1 [Flufenamic acid],29762.4 AU,15182.6 AU,–,–
O=C(O)/C=C/C(=O)O [Fumalic acid],4691.7 AU,6874.3 AU,–,–
O=C(NOCCO)c1ccc2cncn2c1Nc1ccc(I)cc1F [GDC-0623],0.0 AU,1908.1 AU,–,–
OCCn1cc(-c2ccc3c(c2)CC/C3=N\O)c(-c2ccncc2)n1 [GDC-0879],7041.8 AU,38492.2 AU,–,–
CS(=O)(=O)N1CCN(Cc2cc3nc(-c4cccc5[nH]ncc45)nc(N4CCOCC4)c3s2)CC1.CS(=O)(=O)O.CS(=O)(=O)O [GDC-0941 dimethanesulfonate],20950.7 AU,35251.8 AU,–,–
CS(=O)(=O)N1CCN(Cc2cc3nc(-c4cccc5[nH]ncc45)nc(N4CCOCC4)c3s2)CC1 [GDC-0941],590.8 AU,57346.3 AU,–,–

Structure (SMILES),"dsRNA signal, AU High [1]","dsRNA signal, AU Low [2]","dsRNA signal, AU High","dsRNA signal, AU Low"
Cn1nccc1Nc1nccc(-c2ccn([C@H](CO)c3ccc(Cl)c(F)c3)c(=O)c2)n1 [GDC-0994],4912.8 AU,7646.0 AU,–,–
O=C(Nc1nc2cccc(-c3ccc(CN4CCS(=O)(=O)CC4)cc3)n2n1)C1CC1 [GLPG0634],36.1 AU,2690.2 AU,–,–
CNc1nc(Nc2cnn([C@H]3CCN(C4COC4)C[C@@H]3F)c2Cl)ncc1C(F)(F)F [GNE-9605],40803.1 AU,41939.9 AU,–,–
NC(=O)c1cccc(-c2cc(Nc3ccc(OC(F)(F)F)cc3)ncn2)c1 [GNF 2],2578.1 AU,60765.8 AU,–,–
O=C(NCCO)c1cccc(-c2cc(Nc3ccc(OC(F)(F)F)cc3)ncn2)c1 [GNF 5],498.5 AU,65630.6 AU,–,–
Cc1ccc(NC(=O)Nc2cc(C(F)(F)F)ccc2F)cc1Nc1ccc2c(c1)NC(=O)/C2=C\c1ccc[nH]1 [GNF-5837],2750.0 AU,23319.5 AU,–,–
c1cn2cc(-c3ccc4cn[nH]c4c3)nc(Nc3ccc(N4CCOCC4)cc3)c2n1 [GS-9973],32878.5 AU,51541.3 AU,–,–
CC1=C(C(=O)Nc2cc3cn[nH]c3cc2F)C(c2ccc(C(F)(F)F)cc2)CC(=O)N1 (centres unmarked) [GSK429286A],10329.9 AU,34075.4 AU,–,–
CCn1c(-c2nonc2N)nc2c(C#CC(C)(C)O)ncc(OC[C@H]3CCCNC3)c21 [GSK690693],6007.3 AU,39582.1 AU,–,–
O=C1NC(=O)/C(=C/c2ccc3nccc(-c4ccncc4)c3c2)S1 [GSK1059615],832.8 AU,16639.6 AU,–,–
Cn1cc(-c2ccc3c(c2)CCN3C(=O)Cc2cccc(C(F)(F)F)c2)c2c(N)ncnc21 [GSK2606414],6871.8 AU,28375.6 AU,–,–
Cc1cccc(CC(=O)N2CCc3c2ccc(-c2cn(C)c4ncnc(N)c24)c3F)n1 [GSK2656157],2371.9 AU,33522.6 AU,–,–
COc1ccc(COc2ccc(Cc3cnc(N)nc3N)cc2OC)cc1 [GW2580],17974.9 AU,13531.9 AU,–,–
O=C1Nc2ccc(I)cc2/C1=C/c1cc(Br)c(O)c(Br)c1 [GW5074],14683.4 AU,20240.6 AU,–,–
Cn1cc(/C=C2\C(=O)Nc3cccnc32)c2ccccc21 [GW441756],33214.4 AU,18067.5 AU,–,–
O=C(NC1CCOCC1)c1ccc(-c2cc(-c3c[nH]nc3-c3ccccn3)ccn2)cc1 [GW788388],8820.5 AU,0.0 AU,–,–
Cc1ccc(C(=O)Nc2ccc(CN3CCN(C)CC3)c(C(F)(F)F)c2)cc1C#Cc1cnc2[nH]ncc2c1 [GZD824],64275.0 AU,33439.8 AU,–,–
"O=c1c(O)c(-c2ccccc2)oc2cc(O)cc(O)c12 [Galangin;3,5,7-Trihydroxyflavone]",16189.5 AU,46015.9 AU,–,–
COc1cc2ncnc(Nc3ccc(F)c(Cl)c3)c2cc1OCCCN1CCOCC1.Cl [Gefitinib hydrochloride],–,–,0.0,28000.5
CC(C)=CCC[C@](C)(O[C@@H]1O[C@H](CO[C@@H]2O[C@H](CO)[C@@H](O)[C@H](O)[C@H]2O)[C@@H](O)[C@H](O)[C@H]1O)[C@H]1CC[C@]2(C)[C@@H]1[C@H](O)C[C@@H]1[C@@]3(C)CC[C@H](O[C@@H]4O[C@H](CO)[C@@H](O)[C@H](O)[C@H]4O[C@@H]4O[C@H](CO)[C@@H](O)[C@H](O)[C@H]4O)C(C)(C)[C@@H]3CC[C@]12C [Ginsenoside Rb1],7414.4 AU,52585.8 AU,–,–
